Test results taken from ChEMBL document CHEMBL3244158, “Dimerization of coralyne and its propyl analogue and their association with DNA” (J Med Chem, 1979).
Active and inactive are the calls of the source. No cut-off for these calls is given here.

Test system: Calf thymus DNA
Experiment: Binding affinity to calf thymus DNA at 0.033 to 0.995 ligand to DNA ratio by spectrophotometer analysis
Type: nucleic-acid assay
Settings: Bos taurus

Row | Activity | SMILES
1 | Active | CCCc1c2cc(OC)c(OC)cc2cc2c3cc(OC)c(OC)cc3cc[n+]12
2 | Active | COc1cc2cc3c4cc(OC)c(OC)cc4cc[n+]3c(C)c2cc1OC
